Experimental findings from patent US5491149A, “Dihydroxypropylamine containing retroviral protease inhibitors” (The Du Pont Merck Pharmaceutical Company, priority 1994, dated 1996) are described below.

Broadly, the IC50 is the concentration at which inhibition is half-maximal. Read a low IC50 as inhibition by little substance. For orientation: IC90 means the concentration at which the effect reaches the 90% level. Low values mean an effect from little substance, high ones a need for much substance.

One assay concerns the target T1, HIV protease (Human immunodeficiency virus type 1 group M subtype B, UniProt P04585).
T1 construct: plasmid containing HIV protease under the control of the T7 promotor; made in house; host or cells: E. coli (crude lysate, lac promoter)
The assay can be described thus: Cell Free HIV Protease Inhibition Assay (gag polyprotein). The class given is biochemical. The note with it: HIV gag polyprotein substrate, 30° C. From the text:
Procedure III: Cell Free Protease Inhibition Assay Materials:
HIV gag polyprotein corresponding to all of p17 and 78 amino acids of p24, produced by in vitro translation using rabbit reticulocyte lysate and mRNA prepared in vitro from plasmid encoding full length gag polyprotein linerized with the restriction enzyme Pst 1. (see S. Erickson-Viitanen et al., AIDS Research and Human Retroviruses, 5 (6), 577 (1989) for plasmid construction, and basis for assay).
Source of protease: Either (A) crude E. coli lysate of bacteria harboring a plasmid containing HIV protease under the control of the lac promotor, used at a final concentration of 0.5 mg/ml, or (B) inclusion bodies of E. coli harboring plasmid containing HIV protease under the control of the T7 promotor (Cheng et al., Gene, in press (1990)). Such inclusion bodies were solubilized in 8M urea, 50 mM Tris pH 8.0. Protease activity was recovered by dilution of the inclusion bodies 20-fold in buffer containing 50 mM Sodium Acetate, pH 5.5, 1 mM EDTA, 10% glycerol and 5% ethylene glycol. This protease source was used at a final concentration of 0.00875 mg/ml.
Inhibitory compounds were dissolved in sufficient DMSO to make a 2.5 mM stock concentration. All further dilutions were done in DMSO.
Into sterile test tubes were placed the following:
14 ul HIV protease in Phosphate Buffered Saline (20 mM Sodium Phosphate, 0.15M NaCl, pH 6.5).
5 μl of in vitro translation products.
Reactions were incubated at 30° C., then quenched by the addition of Sample buffer. See U. K. Laemmli, Nature, 1970, 227:680-685.
One fourth of each sample was analyzed on an 8-16% gradient denaturing acrylamide gel (Novex, Inc), according to Laemmli. Following electrophoresis, gels were fixed, impregnated with Enhance (Du Pont NEN, Boston, Mass.) and dried according to manufacturers instructions (NEN). Dried fluorographs were exposed to film and/or quantitated using an Ambis radioanalytic scanner.
Each group of test compounds was compared to the values obtained for pepstatin, a well known inhibitor of acid proteases . Inhibitory concentration for 50% inhibition (IC50) is determined from plots of log concentration inhibitor versus % inhibition of protease activity.
Biological Activity: IC50 is the concentration necessary for reducing the activity of the enzyme by 50%.

In assay [1] the test system is HIV(3B) or HIV(RF) in MT-2 human T-cells. The assay can be described thus: HIV Low Multiplicity Assay (XTT, MT-2 cells). Format: cell-based. The note with it: Human immunodeficiency virus 1, MT2, 168 h, 90% protection, multiplicity of infection 0.01, 7 days. The protocol: HIV Low Multiplicity Assby
MT-2, a human T-cell line, was cultured in RPMI medium supplemented with 5% (v/v) heat inactivated fetal calf serum (FCS), L-glutamine and gentamycin (GIBCO). Human immunodeficiency virus strains HIV(3B) and HIV(Rf) were propagated in H-9 cells in RPMI with 5% FCS. XTT, benzene-sulfonic acid, 3,3'-[1-[(phenylamino)carbonyl]-3,4-tetrazolium]bis(4-methoxy-6-nitro)-, sodium salt, was obtained from Starks Associates, Inc.
Test compounds were dissolved in dimethyl-sulfoxide to 5 mg/ml and serially diluted into RPMI medium to ten times the desired final concentration. MT-2 cells (5×10^4 /0.1 ml) were added to each well of a 96 well culture plate and 0.02 ml of the appropriate test compound solution was added to the cells such that each compound concentration was present in two wells. The cells and compounds were allowed to sit for 30 minutes at room temperature. HIV(3B) or HIV(RF) (~5×10^5 plaque forming units/ml) was diluted in medium and added to the cell and compound mixtures to give a multiplicity of infection of 0.01 plaque forming unit/cell. The mixtures were incubated for 7 days at 36° C., during which time the virus replicated and caused the death of unprotected cells. The percentage of cells protected from virus induced cell death was determined by the degree of metabolism of the tetrazolium dye, XTT. In living cells, XTT was metabolized to a colored formazan product which was quantitated spectrophotometrically at 450 nm. The amount of colored formazan was proportional to the number of cells protected from virus by the test compound. The concentration of compound protecting either 50% (IC50) or 90% (IC90) with respect to an uninfected cell culture was determined.
For orientation: Tetrazolium dyes change colour on reduction, which living cells bring about.

Structures are written as SMILES. Converted amounts (≈) assume the structure as drawn.

For `CC(C)[C@H](NC(=O)OCc1ccccc1)C(=O)N[C@@H](Cc1ccccc1)[C@H](O)[C@H](O)CN1C[C@H]2CCCC[C@H]2C[C@H]1C(=O)NC(C)(C)C` (relative stereo) [Example 3, [3-[2[1R*(R*),2R*,3S*],3a,4ab,8ab]]-(phenylmethyl)[1-[[[4-[3-[[(1,1-dimethylethyl)amino]carbonyl]octahydro-2(1H)-isoquinolinyl-2,3-dihydroxy-1-(phenylmethyl)butyl]amino]carbonyl]-2-methylpropyl]carbamate], the IC50 on HIV protease is 2110 nM. This molecule also showed a 90% effect concentration (IC90) in assay [1] of 1.7 µg/mL (≈ 2.56 µM).

At HIV protease, `CC(C)(C)NC(=O)[C@@H]1C[C@@H]2CCCC[C@@H]2CN1C[C@@H](O)[C@@H](O)[C@H](Cc1ccccc1)NC(=O)[C@H](CC(N)=O)NC(=O)OCc1ccccc1` [Example 1, [3S-[2[1R*(R*),2R*,3S*],3a,4ab,8ab]]-(phenylmethyl)[3-amino-1-[[[4-[3-[[(1,1-dimethylethyl)amino]carbonyl]octahydro-2(1H)-isoquinolinyl]-2,3-dihydroxy-1(phenylmethyl)butyl]amino]carbonyl]-3-oxopropyl]carbamate] gave an IC50 of 3020 nM. In addition, the IC90 in assay [1] was 2 µg/mL (≈ 2.94 µM).

`CC(C)(C)NC(=O)[C@@H]1C[C@@H]2CCCC[C@@H]2CN1C[C@@H](O)[C@@H](O)[C@H](Cc1ccccc1)NC(=O)[C@H](CC(N)=O)NC(=O)c1ccc2ccccc2n1` [Example 2, [3S-[2[1R*(R*),2R*,3S*],3a,4ab,8b]]-N1-[4-[3-[[(1,1-dimethylethyl)amino]carbonyl]octahydro-2(1H)-isoquinolinyl]-2,3-dihydroxy-1-(phenylmethyl)butyl]-2-[(2-quinolinylcarbonyl)amino]butanediamide] gave an IC50 against HIV protease of 542 nM. The molecule further gave an IC90 in assay [1] of 0.3 µg/mL (≈ 0.428 µM).

`CC[C@H](C)[C@H](NC(=O)OCc1ccccc1)C(=O)N[C@@H](Cc1ccccc1)[C@H](O)[C@H](O)CN1C[C@H]2CCCC[C@H]2C[C@H]1C(=O)NC(C)(C)C` [Example 4, [3S-[2[1R*(R*,R*),2R*,3S*],3a,4ab,8ab]]-(phenylmethyl)[1-[[[4-[3-[[(1,1-dimethylethyl)amino]carbonyl]octahydro-2(1H)-isoquinolinyl]-2,3-dihydroxy-1-(phenylmethyl)butyl]amino]carbonyl]-2-methylbutyl]carbamate] gave an IC50 against HIV protease of 2930 nM. In assay [1], the concentration for an effect of 90% (IC90) came to 1 µg/mL (≈ 1.47 µM).

`CC(C)(C)NC(=O)[C@@H]1C[C@@H]2CCCC[C@@H]2CN1C[C@H](O)[C@H](O)[C@H](Cc1ccccc1)NC(=O)[C@H](CC(N)=O)NC(=O)OCc1ccccc1` [Example 5, [3S-[2[1R*(R*),2S*,3R*],3a,4ab,8ab]]-(phenylmethyl)[3-amino-1-[[[4-[3-[[(1,1-dimethylethyl)amino]carbonyl]octahydro-2(1H)-isoquinolinyl]-2,3-dihydroxy-1-(phenylmethyl)butyl]amino]carbonyl]-3-oxopropyl]carbamate] registered a 50% inhibitory concentration (IC50) against HIV protease above 18400 nM. The same molecule had an IC90 in assay [1] above 30 µg/mL.

`CC(C)(C)NC(=O)[C@@H]1C[C@@H]2CCCC[C@@H]2CN1C[C@H](O)[C@H](O)[C@H](Cc1ccccc1)NC(=O)[C@H](CC(N)=O)NC(=O)c1ccc2ccccc2n1` [Example 6, [3S-[2[1R*(R*),2S*,3R*],3a,4ab,8ab]]-N1-[4-[3-[[(1,1-dimethylethyl)amino]carbonyl]octahydro-2(1H)-isoquinolinyl]-2,3-dihydroxy-1-(phenylmethyl)butyl]-2-[(2-quinolinylcarbonyl)amino]butanediamide] gave a half-inhibitory concentration (IC50) against HIV protease above 17800 nM. In assay [1], the IC90 came to 10 µg/mL (≈ 14.3 µM).

Take `CC(C)(C)NC(=O)[C@@H]1C[C@@H]2CCCC[C@@H]2CN1C[C@H](O)[C@@H](O)[C@H](Cc1ccccc1)NC(=O)[C@H](CC(N)=O)NC(=O)c1ccc2ccccc2n1` [Example 7, [3S-[2[1R*(R*),2R*,3R*],3a,4ab,8ab]]-N1-[4-[3-[[(1,1-dimethylethyl)amino]carbonyl]octahydro-2(1H)-isoquinolinyl]-2,3-dihydroxy-1-(phenylmethyl)butyl]-2-[(2-quinolinylcarbonyl)amino]butanediamide]: the midpoint of inhibition against HIV protease, the IC50, lay at 2840 nM. The same molecule came in with an IC90 in assay [1] of 2.2 µg/mL (≈ 3.14 µM).

For `CC(C)(C)NC(=O)[C@@H]1C[C@@H]2CCCC[C@@H]2CN1C[C@@H](O)[C@H](O)[C@H](Cc1ccccc1)NC(=O)[C@H](CC(N)=O)NC(=O)OCc1ccccc1` [Example 8, [3S-[2[1R*(R*),2S*,3S*],3a,4ab,8ab]]-(phenylmethyl)[3-amino-1-[[[4-[3-[[(1,1-dimethylethyl)amino]carbonyl]octahydro-2(1H)-isoquinolinyl-2,3-dihydroxy-1-(phenylmethyl)butyl]amino]carbonyl]-3-oxopropyl]carbamate], the IC50 at HIV protease is above 18400 nM. In assay [1], this molecule gave an IC90 above 30 µg/mL.

On to `CC(C)(C)NC(=O)[C@@H]1C[C@@H]2CCCC[C@@H]2CN1C[C@@H](O)[C@H](O)[C@H](Cc1ccccc1)NC(=O)[C@H](CC(N)=O)NC(=O)c1ccc2ccccc2n1` [Example 9, [3S-[2[1R*(R*),2S*,3S*],3a,4ab,8ab]]-N1-[4-[3-[[(1,1-dimethylethyl)amino]carbonyl]octahydro-2(1H)-isoquinolinyl]-2,3-dihydroxy-1-(phenylmethyl)butyl]-2-[(2-quinolinylcarbonyl)amino]butanediamide], for which the IC50 on HIV protease is above 17800 nM. The molecule further came in with an IC90 in assay [1] of 3 µg/mL (≈ 4.28 µM).
